From patent US6372747B1, “Farnesyl protein transferase inhibitors” (Schering Corporation, priority 1998, dated 2002) come the findings set out here.

Bounds are passed on as bounds.

For one series, the system named is COS Cell. In words: COS Cell IC50 (Cell-Based Assay). The following applies: range stated for the group. How it is done:
FPT IC50 (inhibition of farnesyl protein transferase, in vitro enzyme assay) and COS Cell IC50 (Cell-Based Assay) were determined following the assay procedures described in WO 95/10516, published Apr. 20, 1995. GGPT IC50 (inhibition of geranylgeranyl protein transferase, in vitro enzyme assay), Cell Mat Assay, and anti-tumor activity (in vivo anti-tumor studies) could be determined by the assay procedures described in WO 95/10516. The disclosure of WO 95/10516 is incorporated herein by reference thereto.
The IC50 is the point on the concentration scale where inhibition reaches its midpoint. The molecule `CC(C)(CCNC(=O)[C@H]1CN(C2c3ccc(Cl)cc3CCc3cc(Br)cnc32)CCN1C(=O)NC1CCCCC1)n1ccnc1` (stereo partly drawn) [Example 1] registered an IC50 of 0.01 to 0.92 µM.
Molecule `CC(C)(CCNC(=O)[C@H]1CN([C@H]2c3ccc(Cl)cc3CCc3cc(Br)cnc32)CCN1C(=O)CC1CCN(C(N)=O)CC1)n1ccnc1` [Example 8] came in with an IC50 of 0.01 to 0.92 µM.
In turn, `NC(=O)[C@H](Cc1cnc[nH]1)NC(=O)[C@H]1CN(C2c3ccc(Cl)cc3CCc3cc(Br)cnc32)CCN1C(=O)NC1CCCCC1` (stereo partly drawn) [Example 25] yielded an IC50 of 0.01 to 0.92 µM.
Still for that read-out and setting: next, `Cn1cncc1CCCNC(=O)[C@H]1CN(C2c3ccc(Cl)cc3CCc3cc(Br)cnc32)CCN1C(=O)NC1CCCCC1` (stereo partly drawn) [Example 101]: not above 0.035 µM; `CC(C)(C)NC(=O)N1CCN(C2c3ccc(Cl)cc3CCc3cc(Br)cnc32)C[C@@H]1C(=O)NCCCn1ccnc1N` (stereo partly drawn) [Example 103]: not above 0.035 µM.
As to `Cc1cn(CCNC(=O)[C@H]2CN(C3c4ccc(Cl)cc4CCc4cc(Br)cnc43)CCN2C(=O)NC2CCCCC2)cn1` (stereo partly drawn) [Example 259], the IC50 is not above 0.035 µM.

Another series has as its system Human tumor cells. In words: Soft Agar Assay (anchorage-independent growth). The format is cell-based. The following applies: Homo sapiens, range stated for the group unless single. How it is done: Anchorage-independent growth is a characteristic of tumorigenic cell lines. Human tumor cells can be suspended in growth medium containing 0.3% agarose and an indicated concentration of a farnesyl transferase inhibitor. The solution can be overlayed onto growth medium solidified with 0.6% agarose containing the same concentration of farnesyl transferase inhibitor as the top layer. After the top layer is solidified, plates can be incubated for 10-16 days at 37° C. under 5% CO2 to allow colony outgrowth. After incubation, the colonies can be stained by overlaying the agar with a solution of MTT (3-[4,5-dimethyl-thiazol-2-yl]-2,5-diphenyltetrazolium bromide, Thiazolyl blue) (1 mg/mL in PBS). Colonies can be counted and the IC50's can be determined.
In the case of `CCOC(=O)N1CCC([C@H]2c3ccc(Cl)cc3CCc3cc(Br)cnc32)CC1C(=O)N(CCCn1ccnc1)Cc1ccccc1` (single isomer, unassigned) [80 (Isomer A)], the IC50 fell in the range of 0.002 to 0.3 µM.
Same read-out and setting: as for `O=C(C1CC([C@H]2c3ccc(Cl)cc3CCc3cc(Br)cnc32)CCN1C(=O)NC1CCCCC1)N(CCCn1ccnc1)Cc1ccccc1` (single isomer, unassigned) [Example 79 Step B (Isomer A)], the figure is 0.002 to 0.3 µM.
On the same count and under the same terms, next, `Cc1cn(CCCN(Cc2ccccc2O)C(=O)[C@H]2CN([C@H]3c4ccc(Cl)cc4CCc4cccnc43)CCN2C(=O)OC2CCCCC2)cn1` (single isomer, unassigned) [Example 316]: 0.002 to 0.01 µM.
Same read-out and setting: next, `Cc1cn(CCCN(Cc2ccccc2)C(=O)[C@@H]2CN([C@H]3c4ccc(Cl)cc4CCc4cccnc43)CCN2C(=O)OC2CCCCC2)cn1` (single isomer, unassigned) [Example 321]: 0.002 to 0.01 µM.
In turn, `Cc1cn(CCCN(Cc2ccccc2Cl)C(=O)[C@H]2CN([C@H]3c4ccc(Cl)cc4CCc4cccnc43)CCN2C(=O)OC2CCCCC2)cn1` (single isomer, unassigned) [Example 324] returned an IC50 of 0.002 to 0.01 µM.
In the case of `Cc1cncn1CCCN(Cc1ccccc1)C(=O)[C@H]1CN([C@H]2c3ccc(Cl)cc3CCc3cccnc32)CCN1C(=O)OC1CCCCC1` (single isomer, unassigned) [Example 325], the IC50 lay within 0.002 to 0.01 µM.
Still for that read-out and setting: next, `Cc1cn(CCCN(Cc2ccccc2)C(=O)[C@H]2CN(C3c4ccccc4CCc4cccnc43)CCN2C(=O)OC2CCCCC2)cn1` (single isomer, unassigned) [Example 372]: 0.002 to 0.01 µM.
Still for that read-out and setting: next, `Cc1cn(CCCN(Cc2ccccc2)C(=O)[C@H]2CN(C3c4ccc(Cl)cc4CCc4cc(Br)cnc43)CCN2C(=O)OC2CCCCC2)c(C)n1` (single isomer, unassigned) [Example 375]: 0.002 to 0.01 µM.
`Cc1nccn1CCCN(Cc1ccccc1)C(=O)[C@H]1CN(C2c3ccc(Cl)cc3CCc3cc(Br)cnc32)CCN1C(=O)OC1CCCCC1` (single isomer, unassigned) [Example 382] registered an IC50 of 0.002 to 0.01 µM.
Consider `Cn1cncc1CCN(CC1CC1)C(=O)[C@H]1CN([C@H]2c3ccc(Cl)cc3CCc3cc(Br)cnc32)CCN1C(=O)OC(C)(C)C` [305 (11s,2R isomer)], for which the IC50 lay within 0.002 to 0.01 µM.
Still for that read-out and setting: next, `CC(C)(C)NC(=O)N1CCN([C@@H]2c3ccc(Cl)cc3CCc3cc(Br)cnc32)C[C@@H]1C(=O)NCCC(C)(C)n1ccnc1` [Example 11]: 0.002 to 0.3 µM; `CC(C)OC(=O)N1CCN([C@H]2c3ccc(Cl)cc3CCc3cc(Br)cnc32)C[C@@H]1C(=O)NCCC(C)(C)n1ccnc1` [Example 16]: 0.002 to 0.3 µM.
As to `CC(C)(C)OC(=O)N1CCC(C2c3ccc(Cl)cc3CCc3cc(Br)cnc32)CC1C(=O)N(CCCn1ccnc1)Cc1ccccc1` (stereo not drawn) [Example 88], the IC50 is 0.002 to 0.3 µM.
On the same count and under the same terms, next, `CC(C)(C)OC(=O)N1CCN(C2c3ccc(Cl)cc3CCc3cc(Br)cnc32)C[C@@H]1C(=O)N(CCCn1ccnc1)Cc1ccncc1` (stereo partly drawn) [Example 116]: 0.002 to 0.01 µM.
Still for that read-out and setting: next, `CC(C)(C)OC(=O)N1CCN(C2c3ccc(Cl)cc3CCc3cc(Br)cnc32)C[C@@H]1C(=O)N(CCCn1ccnc1)Cc1cccnc1` (stereo partly drawn) [Example 117]: 0.002 to 0.01 µM; `CC(C)(C)OC(=O)N1CCN([C@@H]2c3ccc(Cl)cc3CCc3cc(Br)cnc32)C[C@@H]1C(=O)N(CCCn1ccnc1)Cc1ccccc1` [Example 160]: 0.002 to 0.01 µM.
On the same count and under the same terms, next, `O=C([C@H]1CN([C@H]2c3ccc(Cl)cc3CCc3cc(Br)cnc32)CCN1C(=O)OC1CCCCC1)N(CCCn1ccnc1)Cc1ccccc1` [Example 170]: 0.002 to 0.01 µM.
The molecule `CC(C)COC(=O)N1CCN([C@@H]2c3ccc(Cl)cc3CCc3cc(Br)cnc32)C[C@@H]1C(=O)N(CCCn1ccnc1)Cc1ccccc1` [Example 184] yielded an IC50 of 0.002 to 0.01 µM.
Still for that read-out and setting: as for `O=C([C@H]1CN([C@H]2c3ccc(Cl)cc3CCc3cccnc32)CCN1C(=O)OC1CCCCC1)N(CCCn1ccnc1)Cc1ccccc1` [Example 186], the figure is 0.002 to 0.01 µM; as for `CC(C)OC(=O)N1CCN([C@@H]2c3ccc(Cl)cc3CCc3cccnc32)C[C@@H]1C(=O)N(CCCn1ccnc1)Cc1ccccc1` [Example 187], 0.002 to 0.01 µM; as for `O=C([C@H]1CN([C@@H]2c3ccc(Cl)cc3CCc3cccnc32)CCN1C(=O)OC1CCCCC1)N(CCCn1ccnc1)Cc1ccccc1` [Example 188], 0.002 to 0.01 µM.
The same measure, in the same setting: next, `Cc1cn(CCCN(Cc2ccccc2)C(=O)[C@H]2CN([C@@H]3c4ccc(Cl)cc4CCc4cc(Br)cnc43)CCN2C(=O)OC(C)C)cn1` [Example 196]: 0.002 to 0.01 µM.
Still for that read-out and setting: next, `Cc1cn(CCCN(Cc2ccccc2)C(=O)[C@H]2CN([C@@H]3c4ccc(Cl)cc4CCc4cc(Br)cnc43)CCN2C(=O)OC2CCCCC2)cn1` [Example 197]: 0.002 to 0.01 µM; `Cc1cn(CCCN(Cc2ccccc2)C(=O)[C@H]2CN([C@@H]3c4ccc(Cl)cc4CCc4cccnc43)CCN2C(=O)OC2CCCCC2)cn1` [Example 198]: 0.002 to 0.01 µM.
Turning to `Cc1cn(CCCN(Cc2ccccc2)C(=O)[C@H]2CN([C@H]3c4ccc(Cl)cc4CCc4cccnc43)CCN2C(=O)OC(C)C)cn1` [Example 200], the IC50 fell in the range of 0.002 to 0.01 µM.
On the same count and under the same terms, as for `Cc1cn(CCCN(Cc2ccccc2)C(=O)[C@H]2CN([C@@H]3c4ccc(Cl)cc4CCc4cccnc43)CCN2C(=O)OC2CCCC2)cn1` [Example 202], the figure is 0.002 to 0.01 µM; as for `CC(C)OC(=O)N1CCN([C@H]2c3ccc(Cl)cc3CCc3cccnc32)C[C@@H]1C(=O)N(CCCn1ccnc1)Cc1ccc(F)cc1` [Example 204], 0.002 to 0.01 µM.
As for `CC(C)(C)OC(=O)N1CCN([C@H]2c3ccc(Cl)cc3CCc3cc(Br)cnc32)C[C@@H]1C(=O)N(CCCn1ccnc1)Cc1cccnc1` [Example 206], the IC50 is 0.002 to 0.01 µM.
On the same count and under the same terms, next, `CC(C)(C)OC(=O)N1CCN([C@@H]2c3ccc(Cl)cc3CCc3cc(Br)cnc32)C[C@@H]1C(=O)N(CCCn1ccnc1)Cc1cccnc1` [Example 207]: 0.002 to 0.01 µM; `O=C([C@H]1CN([C@H]2c3ccc(Cl)cc3CCc3cccnc32)CCN1C(=O)OC1CCCCC1)N(CCCn1ccnc1CO)Cc1ccccc1` [Example 208]: 0.002 to 0.01 µM.
Still for that read-out and setting: as for `CC(C)(C)OC(=O)N1CCN(C2c3ccc(Cl)cc3CCc3cc(Br)cnc32)C[C@@H]1C(=O)N(CCCn1ccnc1)Cc1ccccn1` (stereo partly drawn) [Example 217], the figure is 0.002 to 0.01 µM; as for `Cc1cn(CCCN(Cc2ccccc2)C(=O)[C@H]2CN([C@H]3c4ccc(Cl)cc4CCc4cccnc43)CCN2C(=O)OC2CCCCC2)cn1` [Example 225], 0.002 to 0.01 µM; as for `Cc1cn(CCCN(Cc2cccc(Cl)c2)C(=O)[C@H]2CN([C@H]3c4ccc(Cl)cc4CCc4cccnc43)CCN2C(=O)OC2CCCCC2)cn1` [Example 322], 0.002 to 0.01 µM.
On the same count and under the same terms, next, `Cn1cncc1CCCN(Cc1ccccc1)C(=O)[C@H]1CN([C@H]2c3ccc(Cl)cc3CCc3cccnc32)CCN1C(=O)OC1CCCCC1` [Example 335]: 0.002 to 0.01 µM; `Cc1cn(CC(O)(CNC(=O)[C@H]2CN(C3c4ccc(Cl)cc4CCc4cccnc43)CCN2C(=O)OC2CCCCC2)c2ccccc2)cn1` (stereo partly drawn) [Example 339]: 0.002 to 0.01 µM.
In turn, `Cc1ncc(CCN(CC2CC2)C(=O)[C@H]2CN([C@H]3c4ccc(Cl)cc4CCc4cccnc43)CCN2C(=O)OC(C)(C)C)n1C` [Example 365] displayed an IC50 of 0.002 to 0.01 µM.

Staying with this series, now noted: range stated for the group unless single.
With `Cc1cn(CCCN(Cc2ccccc2)C(=O)[C@H]2CN([C@H]3c4ccc(Cl)cc4CCc4cccnc43)CCN2C(=O)OC2CCCCC2)cn1` [Example 225], the midpoint of inhibition, the IC50, lay at 0.002 µM.

Tested on in another series: not given
Test: not given
Details: not given
A word on the melting point: it is the temperature of the solid-liquid transition. Take `CC(C)(CCNC(=O)[C@H]1CN(C2c3ccc(Cl)cc3CCc3cc(Br)cnc32)CCN1C(=O)NC1CCCCC1)n1ccnc1` (stereo partly drawn) [Example 1]: the melting point was 142 to 144 °C.
On the same count and under the same terms, as for `CC(C)(CCNC(=O)[C@H]1CN([C@H]2c3ccc(Cl)cc3CCc3cc(Br)cnc32)CCN1C(=O)CC1CCN(C(N)=O)CC1)n1ccnc1` [Example 8], the figure is 123 to 127 °C; as for `CC(C)(C)NC(=O)N1CCN([C@@H]2c3ccc(Cl)cc3CCc3cc(Br)cnc32)C[C@@H]1C(=O)NCCC(C)(C)n1ccnc1` [Example 11], 157 to 159 °C; as for `CC(C)OC(=O)N1CCN([C@H]2c3ccc(Cl)cc3CCc3cc(Br)cnc32)C[C@@H]1C(=O)NCCC(C)(C)n1ccnc1` [Example 16], 109 to 111 °C.
The same measure, in the same setting: as for `NC(=O)[C@H](Cc1cnc[nH]1)NC(=O)[C@H]1CN(C2c3ccc(Cl)cc3CCc3cc(Br)cnc32)CCN1C(=O)NC1CCCCC1` (stereo partly drawn) [Example 25], the figure is 164 to 169 °C.
